Source: patent publication US11123292B2, “Use of biocompatible microdroplets for the treatment of atherosclerosis, heart disease and stroke” (priority 2014, dated 2021)
Entries after “also recorded” stand apart in the source; their conditions may differ.

Legend:
[1] = Relative Energy Difference (RED) with cholesterol, calculated from HSP; details: for Relative Energy Difference (RED) with cholesterol: RED=Ra/Ro, Ro of cholesterol 12.6
Experimental: The extent to which two compounds will dissolve each other can be quantified using the equations developed by Hansen: (Ra)^2=4(δd2−δd1)^2+(δp2−δp1)^2+(δh2−δh1)^2 Eq. (1) RED=Ra/Ro Eq. (2)
Equation 1 calculates the relative magnitude difference of the three Hansen parameters of the two compounds to arrive at Ra. […] Equation 2 allows one to calculate the Relative Energy Difference (RED) of the solvent and the material we are trying to dissolve, by dividing Ra by Ro. Ra was calculated in Equation 1 and measures the magnitude of the difference of the HSP values of the two compounds. The units for the HSP parameters δd, δp, δh are MPa^1/2. […] The Relative Energy Difference (RED) is a dimensionless number which quantifies how well a solvent will dissolve a solute. For an RED>>1 the compounds will not dissolve. For an RED˜1, there will be some dissolution. For an RED<1 there will be a considerable amount of dissolution. Essentially, the smaller RED value, the more solute will dissolve into the solvent, with RED=1 being a threshold where a given solute is starting to be soluble in a given solvent.
Referring now to FIG. 6, this diagram provides a flow chart showing how the biocompatible microdroplet solvent emulsion can be formulated. […] For an example of compounds which might be included in 400, please refer to Tables 1, 2, 3 and 4. However, this list of tables is by no means exhaustive and other compounds could be added to this list. The number of compounds selected can comprise of 1, 2, 3 or as many as are deemed necessary, which is symbolized by the variable n. The HSP parameters of a homogenous mixture of compounds are the weighted average of the HSP parameters of the individual components. […] Ideally, it is possible to formulate a solution such that the resultant RED of the mixture is smaller than the RED of any of the individual components.
The δdm, δpm, δhm calculated using Eq. 9 are the Hansen solubility parameters of the homogenous mixture, where m denotes mixture, and fi depicts the fraction of each of the n components used to fabricate the biocompatible solvent. Equation 10 can be used to calculate the RED of the final mixture, where Ro is the interaction radius of the cholesterol, or other component of arterial plaque one desires to dissolve using the biocompatible microdroplets and […] represents the Hansen solubility constants of cholesterol (dispersion, polar and hydrogen bonding components) or the HSP parameter of the arterial plaque which is being targeted.

[2] = single compound; cited from earlier work
[3] = cited from earlier work; for mass fraction of cholesterol which will dissolve in a pure solution of the alcohol: 37° C.
[4] = Dissolving cholesterol by microdroplets in whole blood
Text: (§1) To effectively dissolve arterial plaque in-vivo it is very important that the biocompatible solvent be sufficiently insoluble in blood to allow a small discrete microdroplet to travel through the blood stream, from the injection point, to the plaque which is being treated. If the biocompatible solvent dissolves within the blood, such as an alcohol, the solubility parameters of the resultant mixture will be very nearly identical to that of blood and will not dissolve cholesterol or arterial plaque. Conversely, if a discrete microdroplet of the biocompatible solvent makes contact with the plaque, then the cholesterol molecule in the plaque will be surrounded by multiple molecules of the biocompatible solvent, which have similar solubility parameters as the cholesterol, and the cholesterol will be drawn away from the plaque and into the droplet. […] An organic salt, Esters, an organo-metallic compound could also be used as the main component or an addition to the biocompatible microdroplet solvent means. Essentially any organic molecule which can be administered intravenously with acceptable side effects, is sufficiently insoluble in blood to travel as a discrete microdroplet without being dissolved prior to reaching arterial plaque and which is capable of dissolving cholesterol, cholesterol esters or other materials within the arterial plaque, could potentially be used.
1,8-cineole is classified as a cyclic ether and a monoterpenoid. […] This chemical gives certain fruits such as apples and strawberries their fruity taste, and is used as an additive in bubble gums for this purpose. […] It is used as a fragrance or flavouring agent. […] It is produced natuarally by the organism, and is found in abundance in shark liver oil.

[5] = Water insoluble solvents tested for dissolving cholesterol / arterial plaque; details: medium not stated
Text: as §1

Molecule	Relative Energy Difference (RED) with cholesterol [1]	δd London dispersion HSP parameter [2] [MPa^1/2]	δh hydrogen bonding HSP parameter [2] [MPa^1/2]	δp polarity HSP parameter [2] [MPa^1/2]	other results
CC(C)=C1CC[C@@H](C)CC1=O [Pulegone]	0.74	17.5	5.5	8.9	–
C=C(C)C1CC=C(C=O)CC1 (stereo not shown) [Perillaldehyde]	0.68	17.1	5.9	6.9	–
CC(C)=CCCC(C)CC=O (stereo not shown) [Citronellal]	0.78	16.2	5.2	5.9	–
CC(C)CCC[C@@H](C)[C@H]1CC[C@H]2[C@@H]3CC=C4C[C@@H](O)CC[C@]4(C)[C@H]3CC[C@]12C [cholesterol, Cholesterol]	–	20.4	9.4	2.8	solubility of cholesterol in pure water ([3]; 30° C.): approximately 95 micrograms per litre; solubility of cholesterol in water ([3]; 30° C.): 0.000095 grams/litre
Phellandrene	0.76	16.5	3.9	1.6	–
CC12CCC(CC1)C(C)(C)O2 [1,8-cineole]	0.77	16.7	3.4	4.6	efficacy at dissolving cholesterol, two experiments compared ([4]; up to a 4× difference in blood volume): identical to within measurement error; efficacy of microdroplets at dissolving cholesterol in whole blood [4]: extremely good efficacy; efficacy of microdroplets at dissolving cholesterol in whole blood ([4]; listed as 1,8 cineole): excellent results; also recorded: excellent efficacy
C=CC(C)(O)CCC=C(C)CCC=C(C)C (stereo not shown) [Nerolidol]	0.64	16.4	8.7	2.7	–
CCCO [Propanol, reference compound]	1.10	–	–	–	mass fraction of cholesterol which will dissolve in a pure solution of the alcohol [3]: 11%
CC(C)=CCC[C@H](C)[C@@H]1C=CC(C)=CC1 [Zingiberene]	0.74	16.6	4.1	1.4	–
CC(C)[C@@H]1CC[C@@H](C)CC1=O [Menthone]	0.79	17	4.4	8.1	–
C=C(C)[C@@H]1CCC=C(C)C1 [Sylvestrene]	0.74	16.6	4.1	3	–
Bisabolene	0.73	16.7	4	2.2	–
CC(C)C12CCC(C)(CC1)O2 [1,4-Cineole]	0.70	17.1	3.7	3.6	–
C=CC(C)=CCC=C(C)C [Ocimene]	0.62	16.5	9.1	2	–
CCO [Ethanol, reference compound]	1.32	–	–	–	mass fraction of cholesterol which will dissolve in a pure solution of the alcohol [3]: 3.3%
O [water, reference compound]	2.9	–	–	–	mass fraction of cholesterol which will dissolve in pure water ([3]; pure water): 0.0000095%

Molecule	Relative Energy Difference (RED) with cholesterol [1]	δd London dispersion HSP parameter [2] [MPa^1/2]	δh hydrogen bonding HSP parameter [2] [MPa^1/2]	δp polarity HSP parameter [2] [MPa^1/2]	other results
CCCCC/C=C\C/C=C\CCCCCCCC(=O)O [Linoleic acid]	–	–	–	–	result of solvent testing (dissolving cholesterol) [5]: very promising results
CC(C)=CCCC(C)=CCCC(C)=CCO [Farnesol]	0.65	16.4	7.7	3.8	–
C=CC(C)(CCC=C(C)C)OC(C)=O (stereo not shown) [Linalyl Acetate]	0.76	16	5.5	2.8	–
terpinene	–	–	–	–	efficacy of microdroplets at dissolving cholesterol in whole blood [4]: excellent results
CC1=CC(=O)C(C(C)C)CC1 (stereo not shown) [Piperitone]	0.72	17	4.5	6.2	–
CC1=CCC(=C(C)C)CC1 [Terpinolene]	0.70	16.9	4.1	1.8	–
CC(C)=CCCC(C)CCO (stereo not shown) [Citronellol]	0.72	16	10.7	4.7	–
C=CCc1ccc(O)c(OC)c1 [Eugenol]	0.53	18.1	11.6	7.1	Ra^2 versus cholesterol ([1]; Eq. 1): 44; efficacy of microdroplets at dissolving cholesterol in whole blood [4]: excellent results
CC(C)=CCCC(C)=CC=O [Citral]	0.7	16.3	6.2	2.3	–
C=C(C)C1CC=C(C)C(=O)C1 (stereo not shown) [Carvone]	0.5	18	6.4	5.6	efficacy of microdroplets at dissolving cholesterol in whole blood [4]: excellent results
C=CC(C)(C)C(=O)C=C(C)C [Artemisia Ketone]	0.83	15.9	5.1	5.8	–
C=C(C)[C@H]1CC=C(C)CC1 (racemic) [Dipentene]	–	16.7	4	2.2	–
C=CC(=C)CCC=C(C)C [Myrcene]	0.78	16	5.1	2.2	–
CC1CCC(C(C)C)C(O)C1 (stereo not shown) [Menthol]	0.63	16.6	10.6	4.7	–
CC(C)=CCC/C(C)=C/CC/C(C)=C/CC/C=C(\C)CC/C=C(\C)CCC=C(C)C [Squalene]	0.52	17.6	6	3	–
